Data published in patent US20220323406A1, “METHODS AND COMPOSITIONS FOR DIFFERENTIATING STEM CELLS” (Massachusetts Institute of Technology, priority 2019, published 2022).

How the values were obtained:
[1] = tested on: ENR+CD organoids; experiment: Secondary (validation) screen: ATP (CTG) assay, 2.5-D 384-well ENR+CD organoids; type: cell-based, mouse; details: 6-day ENR+CD, vs ENR+CD+DMSO
Description: (§1) Drugs were tested at a narrowed dose range around each treatment's identified optimal dose from the primary screen (4× below, 2× above and below).
(§2) High-throughput screening.
(§3) Secondary lysozyme secretion assay screen. Confirmatory secondary screening with primary hits was performed using the above 384-well plate method. The screen was conducted with 4-plate replicates with a base media of ENR+CD. Media was supplemented with compound at day 0 and day 3 (n=8 well replicates per dose) at four different doses: two-fold above, two-fold below, and four-fold below the optimal final dose for each respective treatment. Additionally, each plate carried a large number of ENR+DMSO or ENR+CD+DMSO (vehicle) control wells (n=100 for ATP, and n=25 for LYZ.NS and LYZ.S) for robust normalization. ATP, non-stimulated lysozyme activity and CCh-stimulated lysozyme activity was again measured and the collected data was again processed in a custom R-script, per primary screen with slight modification. Values were log10 transformed, and a plate-wise FC was calculated for each well based on the median value of ENR+CD+DMSO (vehicle) control wells to normalize plate to plate variability.

[2] = tested on: ENR+CD organoids (ISC to Paneth cell differentiation); experiment: Primary screen: basal (non-stimulated) lysozyme secretion LYZ.NS, 2.5-D 384-well ENR+CD organoid differentiation; type: cell-based, mouse; details: for Dose.FC.LYZ.NS / Z.LYZ.NS / Z.LYZ.NS (standard z score): primary screen; for Z.LYZ.NS: standard z score
Description: as §2

[3] = tested on: ENR+CD organoids (ISC to Paneth cell differentiation); experiment: Primary screen: CCh-stimulated lysozyme secretion LYZ.S, 2.5-D 384-well ENR+CD organoid differentiation; type: cell-based, mouse; details: primary screen
Description: as §2

[4] = tested on: ENR+CD organoids; experiment: Primary screen: ATP (CellTiter-Glo 3D, CTG) cell number/viability, 2.5-D 384-well ENR+CD organoids; details: primary screen;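 further: compounds given at plating and again on day 3 over a 6-day differentiation from ENR+CV stem-cell-enriched precursors, ATP measured on day 6, plate median as control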
[5] = tested on: ENR+CD organoids (ISC to Paneth cell differentiation); experiment: Secondary (validation) screen: LYZ.NS basal lysozyme secretion, 2.5-D 384-well ENR+CD organoids; type: cell-based, mouse; details: 6-day ENR+CD, vs ENR+CD+DMSO
Description: as §1, §2, §3

[6] = tested on: ENR+CD organoids (ISC to Paneth cell differentiation); experiment: Secondary (validation) screen: LYZ.S CCh-stimulated lysozyme secretion, 2.5-D 384-well ENR+CD organoids; type: cell-based, mouse; details: 6-day ENR+CD, vs ENR+CD+DMSO
Description: as §1, §2, §3

| Molecule | Dose.FC.CTG ([1]; 0.02 uM) [log2 fold change] | Dose.FC.CTG ([1]; 0.04 uM) [log2 fold change] | Dose.FC.CTG ([1]; 0.08 uM) [log2 fold change] | Dose.FC.CTG ([1]; […]) [log2 fold change] | Dose.FC.LYZ.NS ([2]; dose 0.08 uM) [log2 fold change] | Dose.FC.LYZ.NS ([2]; dose 0.40 uM) [log2 fold change] | Dose.FC.LYZ.NS ([2]; dose 2.00 uM) [log2 fold change] | Dose.FC.LYZ.NS ([2]; dose 10.00 uM) [log2 fold change] | Z.LYZ.NS ([2]; dose 0.08 uM) | Z.LYZ.NS ([2]; dose 0.40 uM) | Z.LYZ.NS ([2]; dose 2.00 uM) | Z.LYZ.NS ([2]; dose 10.00 uM) | Dose.FC.LYZ.S ([3]; dose 0.08 uM) [log2 fold change] | Dose.FC.LYZ.S ([3]; dose 0.40 uM) [log2 fold change] | Dose.FC.LYZ.S ([3]; dose 2.00 uM) [log2 fold change] | Dose.FC.LYZ.S ([3]; dose 10.00 uM) [log2 fold change] | Dose.FC.CTG ([4]; dose 0.08 uM) [log2 fold change] | Dose.FC.CTG ([4]; dose 0.40 uM) [log2 fold change] | Dose.FC.CTG ([4]; dose 2.00 uM) [log2 fold change] | Dose.FC.CTG ([4]; dose 10.00 uM) [log2 fold change] | also measured |
| --- | --- | --- | --- | --- | --- | --- | --- | --- | --- | --- | --- | --- | --- | --- | --- | --- | --- | --- | --- | --- | --- |
| CCOc1ccc(Cc2cc([C@@H]3O[C@H](CO)[C@@H](O)[C@H](O)[C@H]3O)ccc2Cl)cc1 [Dapagliflozin, reference compound] | 0.085 | 0.174 | 0.149 | 0.035 | 0.170 | 0.097 | 0.159 | 0.136 | 1.481 | 0.842 | 1.386 | 1.182 | 0.294 | 0.135 | 0.166 | 0.145 | 0.410 | 0.254 | 0.293 | 0.301 | Dose.FC.LYZ.NS ([5]; 0.02 uM): 0.022 log2 fold change; Dose.FC.LYZ.NS ([5]; 0.04 uM): 0.150 log2 fold change; Dose.FC.LYZ.NS ([5]; 0.08 uM): 0.058 log2 fold change; Dose.FC.LYZ.NS ([5]; […]): −0.060 log2 fold change; Dose.FC.LYZ.S ([6]; 0.02 uM): −0.019 log2 fold change; Dose.FC.LYZ.S ([6]; 0.04 uM): 0.069 log2 fold change; Dose.FC.LYZ.S ([6]; 0.08 uM): 0.069 log2 fold change; Dose.FC.LYZ.S ([6]; […]): −0.082 log2 fold change |
| CC(C)(C)NC(=O)[C@H]1CC[C@H]2[C@@H]3CC[C@H]4NC(=O)C=C[C@]4(C)[C@H]3CC[C@]12C [Finasteride, reference compound] | 0.066 | −0.180 | −0.011 | −0.065 | 0.205 | 0.213 | 0.142 | 0.067 | 1.781 | 1.852 | 1.236 | 0.587 | 0.199 | 0.211 | 0.156 | 0.056 | 0.151 | −0.038 | 0.073 | −0.041 | primary screen hit call (SSMD and z-scored FC cutoffs in both LYZ assays) ([2]; LYZ.NS and LYZ.S, 0.08-10 uM, 6 days ENR+CD): sole hit in their respective pathway; Dose.FC.LYZ.NS ([5]; 0.02 uM): 0.056 log2 fold change; Dose.FC.LYZ.NS ([5]; 0.04 uM): −0.189 log2 fold change; Dose.FC.LYZ.NS ([5]; 0.08 uM): −0.191 log2 fold change; Dose.FC.LYZ.NS ([5]; […]): −0.203 log2 fold change; Dose.FC.LYZ.S ([6]; 0.02 uM): −0.019 log2 fold change; Dose.FC.LYZ.S ([6]; 0.04 uM): −0.260 log2 fold change; Dose.FC.LYZ.S ([6]; 0.08 uM): −0.242 log2 fold change; Dose.FC.LYZ.S ([6]; […]): −0.253 log2 fold change |
| VU 0364770 |  |  |  |  | 0.155 | 0.085 | 0.117 | 0.102 |  |  |  |  | 0.082 | 0.125 | 0.139 | 0.066 | 0.013 | 0.085 | 0.083 | −0.103 | Z.LYZ.NS (standard z score) ([2]; dose 0.08 uM): 1.350; Z.LYZ.NS (standard z score) ([2]; dose 0.40 uM): 0.736; Z.LYZ.NS (standard z score) ([2]; dose 2.00 uM): 1.020; Z.LYZ.NS (standard z score) ([2]; dose 10.00 uM): 0.884; Z.CTG (standard z score) ([4]; dose 0.08 uM): 0.031; Z.CTG (standard z score) ([4]; dose 0.40 uM): 0.204; Z.CTG (standard z score) ([4]; dose 2.00 uM): 0.199; Z.CTG (standard z score) ([4]; dose 10.00 uM): −0.246 |
